In brackets after ≈: the same amount, converted by molar mass.
Key:
Assay type in all cases: functional
Pseudomonas aeruginosa [1] = assay: Antibacterial activity against tatC deficient Pseudomonas aeruginosa TNP080 transformant harboring pPlcMexA carrying chimeric mexA gene with plcH signal sequence
Pseudomonas aeruginosa [2] = assay: Antibacterial activity against mexA deficient Pseudomonas aeruginosa TNP070
Pseudomonas aeruginosa [3] = assay: Antibacterial activity against tatC deficient Pseudomonas aeruginosa TNP080 transformant harboring pTatPlcMexA carrying entire tatC gene and the chimeric mexA gene
Pseudomonas aeruginosa [4] = assay: Antibacterial activity against tatC deficient Pseudomonas aeruginosa TNP080
Pseudomonas aeruginosa [5] = assay: Antibacterial activity against mexA deficient Pseudomonas aeruginosa TNP070 transformant harboring pPlcMexA carrying chimeric mexA gene with plcH signal sequence
Pseudomonas aeruginosa [6] = assay: Antibacterial activity against tatC deficient Pseudomonas aeruginosa TNP080 transformant harboring pMEXA1 carrying wild type mexA gene
Pseudomonas aeruginosa [7] = assay: Antibacterial activity against Pseudomonas aeruginosa PAO4290 harboring leu-10 argF10 aph-9004 FP(-)
Pseudomonas aeruginosa [8] = assay: Antibacterial activity against mexA deficient Pseudomonas aeruginosa TNP070 transformant harboring pMEXA1 carrying wild type mexA gene

C[C@H]1[C@H](NC(=O)/C(=N\OC(C)(C)C(=O)O)c2csc(N)n2)C(=O)N1S(=O)(=O)O [AZTREONAM]
MIC (Pseudomonas aeruginosa [1]): 0.25 µg/mL (≈ 0.574 µM)
MIC (Pseudomonas aeruginosa [2]): 0.25 µg/mL (≈ 0.574 µM)
MIC (Pseudomonas aeruginosa [3]): 2 µg/mL (≈ 4.59 µM)
MIC (Pseudomonas aeruginosa [4]): 0.13 µg/mL (≈ 0.299 µM)
MIC (Pseudomonas aeruginosa [5]): 2 µg/mL (≈ 4.59 µM)
MIC (Pseudomonas aeruginosa [6]): 2 µg/mL (≈ 4.59 µM)
MIC (Pseudomonas aeruginosa [7]): 4 µg/mL (≈ 9.19 µM)
MIC (Pseudomonas aeruginosa [8]): 2 µg/mL (≈ 4.59 µM)

O=C(N[C@H](CO)[C@H](O)c1ccc([N+](=O)[O-])cc1)C(Cl)Cl [CHLORAMPHENICOL]
MIC (Pseudomonas aeruginosa [1]): 4 µg/mL (≈ 12.4 µM)
MIC (Pseudomonas aeruginosa [2]): 8 µg/mL (≈ 24.8 µM)
MIC (Pseudomonas aeruginosa [3]): 32 µg/mL (≈ 99 µM)
MIC (Pseudomonas aeruginosa [4]): 4 µg/mL (≈ 12.4 µM)
MIC (Pseudomonas aeruginosa [5]): 32 µg/mL (≈ 99 µM)
MIC (Pseudomonas aeruginosa [6]): 32 µg/mL (≈ 99 µM)
MIC (Pseudomonas aeruginosa [7]): 64 µg/mL (≈ 198 µM)
MIC (Pseudomonas aeruginosa [8]): 32 µg/mL (≈ 99 µM)
